Reference: patent US20170190705A1, “Compositions and Methods for Inhibiting BMP” (THE BRIGHAM AND WOMAN'S HOSPITAL, INC., priority 2014, published 2017)

Key:
Format in all cases: biochemical
PIM-1 = PIM-1 (Homo sapiens, UniProt P11309); experiment: Kinome profiling PIM-1; conditions: read-out: Inhibitory activity PIM-1; for inhibition at 0.1 µM: 100 nM
Procedure: (§1) . The kinome-wide selectivity was determined following the methods previously reported by Mohedas et al., ACS Chem Biol 2013, 8, 1291-1302 and Sanvitale et al., PLoS One 2013, 8, e62721.

AMP-A1B1G1 = AMP-A1B1G1 (Homo sapiens, UniProt Q13131); experiment: Kinome profiling AMP-A1B1G1; conditions: read-out: Inhibitory activity AMP-A1B1G1; for inhibition at 0.1 µM: 100 nM
Sequence of AMP-A1B1G1 (Q13131 whole entry): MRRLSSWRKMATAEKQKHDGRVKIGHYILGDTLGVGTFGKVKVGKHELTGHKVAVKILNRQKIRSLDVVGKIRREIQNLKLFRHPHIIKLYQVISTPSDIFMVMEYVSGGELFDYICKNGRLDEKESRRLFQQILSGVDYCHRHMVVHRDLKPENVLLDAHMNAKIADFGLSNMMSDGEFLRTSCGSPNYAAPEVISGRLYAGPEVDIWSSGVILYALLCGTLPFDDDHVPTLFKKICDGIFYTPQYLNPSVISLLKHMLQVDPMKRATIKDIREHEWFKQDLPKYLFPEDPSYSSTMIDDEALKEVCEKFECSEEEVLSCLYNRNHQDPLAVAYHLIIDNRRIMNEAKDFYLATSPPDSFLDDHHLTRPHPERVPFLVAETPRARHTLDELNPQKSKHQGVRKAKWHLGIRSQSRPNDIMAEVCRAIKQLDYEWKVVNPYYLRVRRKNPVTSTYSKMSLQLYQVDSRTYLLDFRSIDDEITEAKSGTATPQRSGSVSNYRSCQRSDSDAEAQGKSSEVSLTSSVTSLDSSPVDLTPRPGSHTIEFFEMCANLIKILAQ
Sequence of AMP-A1B1G1 (Q9Y478 whole entry partner): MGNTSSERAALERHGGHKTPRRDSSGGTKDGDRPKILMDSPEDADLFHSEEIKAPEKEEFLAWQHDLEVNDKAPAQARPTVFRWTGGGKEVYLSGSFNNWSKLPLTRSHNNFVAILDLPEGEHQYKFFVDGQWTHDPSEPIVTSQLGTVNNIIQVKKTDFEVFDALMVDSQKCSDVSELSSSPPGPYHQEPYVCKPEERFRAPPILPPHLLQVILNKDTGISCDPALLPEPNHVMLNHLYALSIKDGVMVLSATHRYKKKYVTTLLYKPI
Sequence of AMP-A1B1G1 (P54619 whole entry partner): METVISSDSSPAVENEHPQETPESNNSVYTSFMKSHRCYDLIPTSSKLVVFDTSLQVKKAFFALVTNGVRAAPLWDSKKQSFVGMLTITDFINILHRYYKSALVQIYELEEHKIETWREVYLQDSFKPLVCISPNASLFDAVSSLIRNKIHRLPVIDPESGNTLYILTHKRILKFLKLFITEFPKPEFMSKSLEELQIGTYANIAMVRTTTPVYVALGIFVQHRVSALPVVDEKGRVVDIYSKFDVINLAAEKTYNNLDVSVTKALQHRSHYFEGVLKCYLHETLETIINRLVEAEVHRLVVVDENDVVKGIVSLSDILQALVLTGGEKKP
Procedure: as §1

EPHB2 = molecular target: T1, EPHB2 (Homo sapiens, UniProt P29323); experiment: Kinome profiling EPHB2; conditions: read-out: Inhibitory activity EPHB2; for inhibition at 0.1 µM: 100 nM
T1 sequence (P29323 19-1055): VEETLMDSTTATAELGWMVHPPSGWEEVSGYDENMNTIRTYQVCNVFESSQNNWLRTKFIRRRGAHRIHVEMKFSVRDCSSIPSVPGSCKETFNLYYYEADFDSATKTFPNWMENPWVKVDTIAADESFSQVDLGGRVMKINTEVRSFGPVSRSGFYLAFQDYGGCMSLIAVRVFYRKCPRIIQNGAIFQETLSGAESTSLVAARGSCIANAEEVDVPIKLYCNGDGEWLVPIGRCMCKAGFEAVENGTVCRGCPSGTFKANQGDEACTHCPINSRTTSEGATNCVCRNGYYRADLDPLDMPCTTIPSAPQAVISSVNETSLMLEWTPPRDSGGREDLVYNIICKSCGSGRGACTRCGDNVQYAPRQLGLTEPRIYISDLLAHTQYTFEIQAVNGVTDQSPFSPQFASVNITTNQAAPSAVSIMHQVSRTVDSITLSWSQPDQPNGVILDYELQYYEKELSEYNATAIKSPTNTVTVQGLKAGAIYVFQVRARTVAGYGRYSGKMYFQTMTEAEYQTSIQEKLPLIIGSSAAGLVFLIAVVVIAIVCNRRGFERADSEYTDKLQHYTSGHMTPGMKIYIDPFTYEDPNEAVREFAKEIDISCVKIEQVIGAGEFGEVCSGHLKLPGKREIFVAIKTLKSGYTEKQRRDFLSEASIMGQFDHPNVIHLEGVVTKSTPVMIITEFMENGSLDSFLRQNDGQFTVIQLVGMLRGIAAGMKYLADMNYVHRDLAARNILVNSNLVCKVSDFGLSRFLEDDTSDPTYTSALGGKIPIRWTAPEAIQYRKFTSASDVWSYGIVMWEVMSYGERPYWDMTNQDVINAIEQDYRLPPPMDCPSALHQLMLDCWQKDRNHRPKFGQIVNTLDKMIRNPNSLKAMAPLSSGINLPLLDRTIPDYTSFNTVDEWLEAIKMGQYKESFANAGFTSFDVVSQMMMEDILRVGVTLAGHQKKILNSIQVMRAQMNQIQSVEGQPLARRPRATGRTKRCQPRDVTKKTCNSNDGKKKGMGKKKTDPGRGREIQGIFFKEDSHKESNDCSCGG
Procedure: as §1

FGR = FGR (Homo sapiens, UniProt P09769); experiment: Kinome profiling FGR; conditions: read-out: Inhibitory activity FGR; for inhibition at 0.1 µM: 100 nM
Sequence of FGR (P09769 whole entry): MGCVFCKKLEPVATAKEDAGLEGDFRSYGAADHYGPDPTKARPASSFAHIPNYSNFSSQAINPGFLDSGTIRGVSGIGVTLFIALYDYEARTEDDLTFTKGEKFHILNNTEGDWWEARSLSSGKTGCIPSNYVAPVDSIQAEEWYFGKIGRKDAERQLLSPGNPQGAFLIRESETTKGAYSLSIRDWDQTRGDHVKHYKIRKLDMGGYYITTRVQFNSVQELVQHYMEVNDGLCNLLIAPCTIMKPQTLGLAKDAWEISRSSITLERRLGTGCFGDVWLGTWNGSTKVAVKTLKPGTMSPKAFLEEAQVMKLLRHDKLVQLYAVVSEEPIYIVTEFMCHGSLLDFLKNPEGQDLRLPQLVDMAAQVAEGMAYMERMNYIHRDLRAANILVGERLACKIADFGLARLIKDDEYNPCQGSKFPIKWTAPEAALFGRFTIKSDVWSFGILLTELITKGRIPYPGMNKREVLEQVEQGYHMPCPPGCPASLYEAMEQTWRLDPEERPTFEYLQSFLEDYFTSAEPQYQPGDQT
Procedure: as §1

AURORA-B = AURORA-B (Homo sapiens, UniProt Q96GD4); experiment: Kinome profiling AURORA-B; conditions: read-out: Inhibitory activity AURORA-B; for inhibition at 0.1 µM: 100 nM
Sequence of AURORA-B (Q96GD4 whole entry): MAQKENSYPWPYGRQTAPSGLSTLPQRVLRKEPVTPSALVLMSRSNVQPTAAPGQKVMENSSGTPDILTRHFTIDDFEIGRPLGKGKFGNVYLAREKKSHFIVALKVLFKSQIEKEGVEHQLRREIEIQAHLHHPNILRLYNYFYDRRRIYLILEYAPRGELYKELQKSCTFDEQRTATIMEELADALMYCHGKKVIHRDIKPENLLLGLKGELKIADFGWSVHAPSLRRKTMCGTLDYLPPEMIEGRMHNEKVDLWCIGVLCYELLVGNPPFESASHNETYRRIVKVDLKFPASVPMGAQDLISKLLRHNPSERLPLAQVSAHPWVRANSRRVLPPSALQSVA
Procedure: as §1

EGFR = EGFR (Homo sapiens, UniProt P00533); experiment: Kinome profiling EGFR; conditions: read-out: Inhibitory activity EGFR; for inhibition at 0.1 µM: 100 nM
Sequence of EGFR (P00533 25-1210): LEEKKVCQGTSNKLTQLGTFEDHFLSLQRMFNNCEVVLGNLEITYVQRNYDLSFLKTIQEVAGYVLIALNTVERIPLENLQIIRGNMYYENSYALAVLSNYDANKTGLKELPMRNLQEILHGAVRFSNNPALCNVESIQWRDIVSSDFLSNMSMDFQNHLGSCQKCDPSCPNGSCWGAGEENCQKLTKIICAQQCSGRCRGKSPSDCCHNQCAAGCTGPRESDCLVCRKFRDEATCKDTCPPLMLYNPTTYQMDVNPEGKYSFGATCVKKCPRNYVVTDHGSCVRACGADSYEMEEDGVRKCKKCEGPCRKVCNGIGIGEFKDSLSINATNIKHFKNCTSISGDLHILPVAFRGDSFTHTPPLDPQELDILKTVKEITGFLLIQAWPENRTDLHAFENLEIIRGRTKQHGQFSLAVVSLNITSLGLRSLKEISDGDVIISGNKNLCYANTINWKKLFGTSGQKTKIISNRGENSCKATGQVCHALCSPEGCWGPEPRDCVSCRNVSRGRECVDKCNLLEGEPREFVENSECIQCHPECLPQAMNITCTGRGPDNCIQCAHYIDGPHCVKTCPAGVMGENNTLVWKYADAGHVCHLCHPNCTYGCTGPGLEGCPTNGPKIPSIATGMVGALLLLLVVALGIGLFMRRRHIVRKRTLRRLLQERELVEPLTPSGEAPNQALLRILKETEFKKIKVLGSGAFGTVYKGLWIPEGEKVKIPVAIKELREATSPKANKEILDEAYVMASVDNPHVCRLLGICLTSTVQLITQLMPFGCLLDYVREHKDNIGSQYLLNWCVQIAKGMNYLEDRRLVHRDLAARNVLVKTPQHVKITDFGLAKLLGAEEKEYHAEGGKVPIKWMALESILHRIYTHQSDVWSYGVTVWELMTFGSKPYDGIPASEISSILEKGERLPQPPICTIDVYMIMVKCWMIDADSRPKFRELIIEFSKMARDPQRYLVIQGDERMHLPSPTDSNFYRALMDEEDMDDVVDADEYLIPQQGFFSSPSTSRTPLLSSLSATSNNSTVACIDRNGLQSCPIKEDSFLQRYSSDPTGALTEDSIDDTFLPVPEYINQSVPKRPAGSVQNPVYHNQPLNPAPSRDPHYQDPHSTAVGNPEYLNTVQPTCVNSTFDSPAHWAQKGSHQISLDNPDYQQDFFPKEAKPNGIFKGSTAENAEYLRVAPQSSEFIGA
Procedure: as §1

MKNK1 = MKNK1 (Homo sapiens, UniProt Q9BUB5); experiment: Kinome profiling MKNK1; conditions: read-out: Inhibitory activity MKNK1; for inhibition at 0.1 µM: 100 nM
Sequence of MKNK1 (Q9BUB5 whole entry): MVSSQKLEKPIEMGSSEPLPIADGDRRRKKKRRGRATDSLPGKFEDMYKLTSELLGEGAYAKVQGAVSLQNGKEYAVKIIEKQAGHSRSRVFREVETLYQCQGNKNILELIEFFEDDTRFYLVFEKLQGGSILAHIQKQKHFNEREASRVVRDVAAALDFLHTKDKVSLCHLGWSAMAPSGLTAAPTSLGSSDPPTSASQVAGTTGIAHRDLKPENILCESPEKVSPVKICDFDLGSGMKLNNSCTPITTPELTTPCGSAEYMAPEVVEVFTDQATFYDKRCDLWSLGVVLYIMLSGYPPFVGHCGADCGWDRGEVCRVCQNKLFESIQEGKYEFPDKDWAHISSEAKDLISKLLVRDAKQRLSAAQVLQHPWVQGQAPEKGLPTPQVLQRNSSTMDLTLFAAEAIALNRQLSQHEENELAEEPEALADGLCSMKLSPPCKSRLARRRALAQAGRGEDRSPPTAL
Procedure: as §1

MRCK-α = MRCK-α (Homo sapiens, UniProt Q5VT25); experiment: Kinome profiling MRCK-α; conditions: read-out: Inhibitory activity MRCK-α; for inhibition at 0.1 µM: 100 nM
Procedure: as §1

CK1-γ3 = CK1-γ3 (Homo sapiens, UniProt Q9Y6M4); experiment: Kinome profiling CK1-γ3; conditions: read-out: Inhibitory activity CK1-γ3; for inhibition at 0.1 µM: 100 nM
Sequence of CK1-γ3 (Q9Y6M4 whole entry): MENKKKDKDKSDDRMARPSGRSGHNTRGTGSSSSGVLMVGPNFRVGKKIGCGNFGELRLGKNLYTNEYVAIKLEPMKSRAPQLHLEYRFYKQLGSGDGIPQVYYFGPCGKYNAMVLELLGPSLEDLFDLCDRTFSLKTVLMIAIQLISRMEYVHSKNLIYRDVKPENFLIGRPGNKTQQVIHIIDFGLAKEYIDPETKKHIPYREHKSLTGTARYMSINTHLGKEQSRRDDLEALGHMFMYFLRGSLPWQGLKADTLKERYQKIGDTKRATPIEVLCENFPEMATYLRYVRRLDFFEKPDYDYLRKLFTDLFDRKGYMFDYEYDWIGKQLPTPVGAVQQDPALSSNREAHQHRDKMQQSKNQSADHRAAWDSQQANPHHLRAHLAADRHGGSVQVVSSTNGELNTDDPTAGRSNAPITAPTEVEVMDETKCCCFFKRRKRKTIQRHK
Procedure: as §1

MAPK1 = MAPK1 (Homo sapiens, UniProt P28482); experiment: Kinome profiling MAPK1; conditions: read-out: Inhibitory activity MAPK1; for inhibition at 0.1 µM: 100 nM
Sequence of MAPK1 (P28482 whole entry): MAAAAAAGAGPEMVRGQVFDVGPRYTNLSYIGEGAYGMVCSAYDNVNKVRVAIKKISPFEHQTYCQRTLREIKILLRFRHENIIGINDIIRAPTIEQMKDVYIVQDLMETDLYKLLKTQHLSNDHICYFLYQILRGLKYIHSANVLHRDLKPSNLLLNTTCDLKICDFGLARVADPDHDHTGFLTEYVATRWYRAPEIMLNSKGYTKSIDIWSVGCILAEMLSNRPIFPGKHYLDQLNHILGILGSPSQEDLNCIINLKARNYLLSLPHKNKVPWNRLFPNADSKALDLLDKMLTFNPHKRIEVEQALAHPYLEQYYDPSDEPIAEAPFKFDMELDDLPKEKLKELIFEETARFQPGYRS
Procedure: as §1

GRK7 = molecular target: T2, GRK7 (Homo sapiens, UniProt Q8WTQ7); experiment: Kinome profiling GRK7; conditions: read-out: Inhibitory activity GRK7; for inhibition at 0.1 µM: 100 nM
T2 sequence (Q8WTQ7 1-553): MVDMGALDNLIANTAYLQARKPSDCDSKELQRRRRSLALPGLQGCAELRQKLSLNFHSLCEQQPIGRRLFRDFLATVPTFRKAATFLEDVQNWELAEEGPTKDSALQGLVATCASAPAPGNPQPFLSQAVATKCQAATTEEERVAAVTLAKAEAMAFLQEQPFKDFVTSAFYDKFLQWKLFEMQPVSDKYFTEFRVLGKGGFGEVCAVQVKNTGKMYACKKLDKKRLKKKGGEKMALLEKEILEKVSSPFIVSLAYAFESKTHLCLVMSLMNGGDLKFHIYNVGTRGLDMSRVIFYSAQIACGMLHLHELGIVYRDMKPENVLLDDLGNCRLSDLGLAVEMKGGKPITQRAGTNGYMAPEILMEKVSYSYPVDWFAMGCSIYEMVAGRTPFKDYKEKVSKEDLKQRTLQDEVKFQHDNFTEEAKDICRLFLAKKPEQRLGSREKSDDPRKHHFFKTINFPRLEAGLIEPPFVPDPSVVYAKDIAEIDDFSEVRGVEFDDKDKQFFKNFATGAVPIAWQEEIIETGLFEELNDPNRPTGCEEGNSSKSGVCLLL
Procedure: as §1

Sequence of PIM-1 (P11309 whole entry): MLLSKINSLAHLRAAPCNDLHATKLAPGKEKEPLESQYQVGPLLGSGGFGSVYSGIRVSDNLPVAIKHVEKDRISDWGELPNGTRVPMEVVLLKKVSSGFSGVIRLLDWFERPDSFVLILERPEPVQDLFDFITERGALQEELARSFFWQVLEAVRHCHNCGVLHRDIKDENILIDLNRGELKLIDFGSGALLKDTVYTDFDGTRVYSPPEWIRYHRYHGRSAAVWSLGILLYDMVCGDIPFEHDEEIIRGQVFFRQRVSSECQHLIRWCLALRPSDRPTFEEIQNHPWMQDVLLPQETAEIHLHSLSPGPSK

Row | SMILES | inhibition at 0.1 µM (PIM-1) | inhibition at 1 µM (PIM-1) | inhibition at 0.1 µM (AMP-A1B1G1) | inhibition at 1 µM (AMP-A1B1G1) | inhibition at 0.1 µM (EPHB2) | inhibition at 1 µM (EPHB2) | inhibition at 0.1 µM (FGR) | inhibition at 1 µM (FGR) | inhibition at 0.1 µM (AURORA-B) | inhibition at 1 µM (AURORA-B) | inhibition at 0.1 µM (EGFR) | inhibition at 1 µM (EGFR) | inhibition at 0.1 µM (MKNK1) | inhibition at 1 µM (MKNK1) | inhibition at 0.1 µM (MRCK-α) | inhibition at 1 µM (MRCK-α) | inhibition at 0.1 µM (CK1-γ3) | inhibition at 1 µM (CK1-γ3) | inhibition at 0.1 µM (MAPK1) | inhibition at 1 µM (MAPK1) | other results
1 | COc1cc(-c2cc(-c3ccc(N4CCNCC4)cc3)cnc2N)cc(OC)c1OC [Compound 15, 5-(4-(piperazin-1-yl)phenyl)-3-(3,4,5-trimethoxyphenyl)pyridin-2-amine] | 0% | -1% | 0% | 5% | 22% | 70% | 36% | 76% | 3% | 8% | 8% | 37% | 3% | 5% | 6% | 50% | 7% | 30% | 3% | 6% | inhibition at 0.1 µM (GRK7): 2%; inhibition at 1 µM (GRK7): 0%
2 | COc1cc(-c2cc(-c3ccc(N4CCNCC4)cc3)cnc2C)cc(OC)c1OC [Compound 10, 1-(4-(6-methyl-5-(3,4,5-trimethoxyphenyl)pyridin-3-yl)phenyl)piperazine] | 1% | 0% | 5% | 1% | 5% | 15% | 9% | 36% | 2% | 3% | 3% | 16% | 3% | 5% | -1% | 2% | 1% | 10% | 1% | 1% | inhibition at 0.1 µM (GRK7): 3%; inhibition at 1 µM (GRK7): 4%
